Reference: patent publication US11912723B2, “KRAS modulators and uses thereof” (Quanta Therapeutics, Inc., priority 2022, dated 2024)

Tests used:
[1] = biological target: T1, GST-tagged KRAS G12D (2-169) (Homo sapiens, UniProt P01116, G12D); experiment: Nucleotide exchange assay (NEA), HTRF of SOS-mediated GTP-DY-647P1 binding; assay type: biochemical; details: 5 nM GST-KRAS G12D, 20 nM SOScat, 150 nM GTP; compound 1 h at RT
T1 construct: GST-tagged KRAS^G12D (2-169, Reaction Biology, MSC-11-539); purchased Reaction Biology MSC-11-539 (KRAS G12D); MSC-11-502 (SOS1cat)
T1 sequence (P01116 2-169 isoform P01116-2 G12D): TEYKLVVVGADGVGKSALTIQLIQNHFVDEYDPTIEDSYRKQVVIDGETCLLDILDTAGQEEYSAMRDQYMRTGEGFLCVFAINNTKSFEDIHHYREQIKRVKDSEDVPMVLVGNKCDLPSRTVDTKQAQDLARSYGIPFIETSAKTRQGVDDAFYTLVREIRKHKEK
In short: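 SOS1cat (564-1049)-driven loading of GTP-DY-647P1 onto KRAS G12D, read by HTRF with anti-GST Tb cryptate donor; compound preincubated with KRAS 1 h at RT. Final 5 nM KRAS, 20 nM SOScat, 150 nM GTP, pH 7.3 HEPES buffer; read up to 90 min at RT. Blanked to no-SOS1; 4-parameter fit of % inhibition.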

[2] = system: AGS (KRAS G12D) cells, phospho-ERK; experiment: pERK In Cell Western (ICW) assay (Method B); assay type: cell-based; details: 3 hours
In short: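 AGS cells seeded at 5,000/well, grown overnight, then treated 3 h at 37 °C with ½-log 10-point dilutions (top 10 μM). Fixed cells stained for phospho-ERK, normalized to DRAQ5 DNA signal and to DMSO control; IC50 from 4-parameter variable-slope fit.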

| SMILES | IC50 [1] | IC50 ([2]; Homo sapiens) | IC50 [2] |
| --- | --- | --- | --- |
| F[C@H]1CN2CCC[C@@]2(COc2nc3c(c(N4CCCCCC4)n2)COC2(CCCc4c(Br)cccc42)C3)C1 (stereo partly drawn) [Compound 5, 4-(azepan-1-yl)-5′-bromo-2-[[(2R,8S)-2-fluoro-1,2,3,5,6,7-hexahydropyrrolizin-8-yl]methoxy]spiro[5,8-dihydropyrano[4,3-d]pyrimidine-7,1′-tetralin]] | 1000 to 20000 nM | > 10 µM |  |
| F[C@H]1CN2CCC[C@@]2(COc2nc3c(c(N4C[C@H]5CC[C@@H](C4)N5)n2)COC2(CCCc4c(Br)cccc42)C3)C1 (stereo partly drawn) [Compound 10, 5′-bromo-4-(3,8-diazabicyclo[3.2.1]octan-3-yl)-2-[[(2R,8S)-2-fluoro-1,2,3,5,6,7-hexahydropyrrolizin-8-yl]methoxy]spiro[5,8-dihydropyrano[4,3-d]pyrimidine-7,1′-tetralin]] | 10 to 100 nM | > 10 µM |  |
| Oc1ccc2c(c1)C1(CCC2)Cc2nc(OC[C@@]34CCCN3C[C@H](F)C4)nc(N3CCCC(O)CC3)c2CO1 (stereo partly drawn) [Compound 14, 2-[[(2S,8R)-2-fluoro-1,2,3,5,6,7-hexahydropyrrolizin-8-yl]methoxy]-4-(4-hydroxyazepan-1-yl)spiro[5,8-dihydropyrano[4,3-d]pyrimidine-7,4′-tetralin]-6′-ol] | 1000 to 20000 nM | > 10 µM |  |
| OC1CCCN(c2nc(OC[C@@]34CCCN3C[C@H](F)C4)nc3c2COC2(CCCc4c(Cl)cccc42)C3)CC1 (stereo partly drawn) [Compound 15, 1-[5′-chloro-2-[[(2R,8S)-2-fluoro-1,2,3,5,6,7-hexahydropyrrolizin-8-yl]methoxy]spiro[5,8-dihydropyrano[4,3-d]pyrimidine-7,1′-tetralin]-4-yl]azepan-4-ol] | 1000 to 20000 nM | > 10 µM |  |
| N#CC1CCCN(c2nc(OC[C@@]34CCCN3C[C@H](F)C4)nc3c2COC2(CCc4c(Cl)cccc42)C3)CC1 (stereo partly drawn) [Compound 16, 1-(4-chloro-2′-(((2R,7aS)-2-fluorotetrahydro-1H-pyrrolizin-7a(5H)-yl)methoxy)-2,3,5′,8′-tetrahydrospiro[indene-1,7′-pyrano[4,3-d]pyrimidin]-4′-yl)azepane-4-carbonitrile] | 1000 to 20000 nM | > 10 µM |  |
| OC1CCCN(c2nc(OC[C@@]34CCCN3C[C@H](F)C4)nc3c2COC2(CCCc4ccc(Cl)cc42)C3)CC1 (stereo partly drawn) [Compound 17, 1-(7-chloro-2′-(((2R,7aS)-2-fluorotetrahydro-1H-pyrrolizin-7a(5H)-yl)methoxy)-3,4,5′,8′-tetrahydro-2H-spiro[naphthalene-1,7′-pyrano[4,3-d]pyrimidin]-4′-yl)azepan-4-ol] | 1000 to 20000 nM | 1 to 10 µM |  |
| F[C@H]1CN2CCC[C@@]2(COc2nc3c(c(N4CCC=CCC4)n2)COC2(CCc4c(Cl)cccc42)C3)C1 (stereo partly drawn) [Compound 18, 4′-chloro-2-[[(2R,8S)-2-fluoro-1,2,3,5,6,7-hexahydropyrrolizin-8-yl]methoxy]-4-(2,3,6,7-tetrahydroazepin-1-yl)spiro[5,8-dihydropyrano[4,3-d]pyrimidine-7,1′-indane]] | > 20000 nM | > 10 µM |  |
| CN(C)C(=O)c1cc2n(n1)CCCN(c1nc(OC[C@@]34CCCN3C[C@H](F)C4)nc3c1CO[C@]1(CCc4c(Cl)cccc41)C3)C2 [Compound 27B, 5-[(7R)-4′-chloro-2-[[(2R,8S)-2-fluoro-1,2,3,5,6,7-hexahydropyrrolizin-8-yl]methoxy]spiro[5,8-dihydropyrano[4,3-d]pyrimidine-7,1′-indane]-4-yl]-N,N-dimethyl-4,6,7,8-tetrahydropyrazolo[1,5-a][1,4]diazepine-2-carboxamide] | < 10 nM |  | 0.1 to 1 µM |
| CN1Cc2c(nc(OC[C@@]34CCCN3C[C@H](F)C4)nc2N2CCCCCC2)C[C@]12CCc1c(Cl)cccc12 [Compound 28A, (7S)-4-(azepan-1-yl)-4′-chloro-2-[[(2R,8S)-2-fluoro-1,2,3,5,6,7-hexahydropyrrolizin-8-yl]methoxy]-6-methyl-spiro[5,8-dihydropyrido[4,3-d]pyrimidine-7,1′-indane]] | 1000 to 20000 nM | > 10 µM |  |
| N#CNC1CCCN(c2nc(OC[C@@]34CCCN3C[C@H](F)C4)nc3c2COC2(CCc4c(Cl)cccc42)C3)C1 (stereo partly drawn) [Compound 29, [1-[4′-chloro-2-[[(2R,8S)-2-fluoro-1,2,3,5,6,7-hexahydropyrrolizin-8-yl]methoxy]spiro[5,8-dihydropyrano[4,3-d]pyrimidine-7,1′-indane]-4-yl]-3-piperidyl]cyanamide] | 100 to 1000 nM | 1 to 10 µM |  |
| CN(C)C(=O)c1cc2n(n1)CCCN(c1nc(OC[C@@]34CCCN3C[C@H](F)C4)nc3c1CN(C)C1(CCCc4ccc(O)cc41)C3)C2 (stereo partly drawn) [Compound 39, 5-[7′-hydroxy-6-methyl-2-[[(2R,8S)-2-fluoro-1,2,3,5,6,7-hexahydropyrrolizin-8-yl]methoxy]spiro[5,8-dihydropyrido[4,3-d]pyrimidine-7,1′-tetralin]-4-yl]-N,N-dimethyl-4,6,7,8-tetrahydropyrazolo[1,5-a][1,4]diazepine-2-carboxamide] | < 10 nM | 1 to 10 µM |  |
| CN(C)C(=O)c1cc2n(n1)CCCN(c1nc(OC[C@@]34CCCN3C[C@H](F)C4)nc3c1CN(C)[C@@]1(CCCc4ccc(O)cc41)C3)C2 [Compound 39A, 5-[(7S)-2-[[(2R,8S)-2-fluoro-1,2,3,5,6,7-hexahydropyrrolizin-8-yl]methoxy]-7′-hydroxy-6-methyl-spiro[5,8-dihydropyrido[4,3-d]pyrimidine-7,1′-tetralin]-4-yl]-N,N-dimethyl-4,6,7,8-tetrahydropyrazolo[1,5-a][1,4]diazepine-2-carboxamide] | < 10 nM | 0.1 to 1 µM |  |
| Cc1c(C(=O)N(C)C)nn2c1CN(c1nc(OC[C@@]34CCCN3C[C@H](F)C4)nc3c1CO[C@@]1(CCc4c(Cl)cccc41)C3)CCC2 [Compound 42, 5-[(7S)-4′-chloro-2-[[(2R,8S)-2-fluoro-1,2,3,5,6,7-hexahydropyrrolizin-8-yl]methoxy]spiro[5,8-dihydropyrano[4,3-d]pyrimidine-7,1′-indane]-4-yl]-N,N,3-trimethyl-4,6,7,8-tetrahydropyrazolo[1,5-a][1,4]diazepine-2-carboxamide] | < 10 nM | 0.1 to 1 µM |  |
| O=C(c1nn2c(c1Cl)CN(c1nc(OC[C@@]34CCCN3C[C@H](F)C4)nc3c1CO[C@@]1(CCc4c(Cl)cccc41)C3)CCC2)N1CCOCC1 [Compound 45, [3-chloro-5-[(7S)-4′-chloro-2-[[(2R,8S)-2-fluoro-1,2,3,5,6,7-hexahydropyrrolizin-8-yl]methoxy]spiro[5,8-dihydropyrano[4,3-d]pyrimidine-7,1′-indane]-4-yl]-4,6,7,8-tetrahydropyrazolo[1,5-a][1,4]diazepin-2-yl]-morpholino-methanone] | < 10 nM | 0.1 to 1 µM |  |
| C[C@@]1(NC#N)CCCN(c2nc(OC[C@@]34CCCN3C[C@H](F)C4)nc3c2COC2(CCc4c(Cl)cccc42)C3)C1 (stereo partly drawn) [Compound 46A, [(3R)-1-[(7*)-4′-chloro-2-[[(2R,8S)-2-fluoro-1,2,3,5,6,7-hexahydropyrrolizin-8-yl]methoxy]spiro[5,8-dihydropyrano[4,3-d]pyrimidine-7,1′-indane]-4-yl]-3-methyl-3-piperidyl]cyanamide; 2,2,2-trifluoroacetic acid] | 100 to 1000 nM |  | > 10 µM |
